The values below come from article PMC12323621, “Exploring the antimicrobial activity of pantothenamides against uropathogenic Escherichia coli” (Microbiology Spectrum, 2025).

For the assay, the system named is UPEC strain CFT073. Kind of assay: Antimicrobial susceptibility assay, UPEC grown in pooled human urine. It counts as cell-based, Escherichia coli. The source says:
Unless otherwise noted, all reagents were obtained from commercial sources. BAP, 1, and N5-Pan analogs were synthesized according to previously reported procedures ([31], [53]). Urine was self-collected from adult males and females (not menstruating) between 24 and 57 years old (recruitment was open to donors 18–65 years old), who had not used anti-infectives or cranberry products for at least 7 days prior to collection. The collection protocol was approved by the Johns Hopkins University Institutional Review Boards under IRB study NA_00085130. Informed, written consent was obtained from all participants prior to collection. Urine was collected from at least 7 participants over 14 days, stored at 4°C upon collection, and then pooled, filter-sterilized, and frozen at −20°C. Urine Batch A included five male and three female donors with an average age of 33 years (range: 24–57). Urine Batch B included four male and five female donors with an average age of 26 years (range: 24–43). Samples from two donors (donations made at least 30 days apart) were included in both Batch A and Batch B. Urine Batch C included four male and three female donors with an average age of 27 years (range: 24–36). Urine Batch D included four male and three female donors with an average age of 27 years (range: 25–35). Solid urine agar plates were prepared by supplementing cooled 1.5% (wt/vol) agar with filter-sterilized urine in a 4:1 ratio. Liquid MOPS-glycerol was prepared by adding 10 × 3-(N-morpholino)propanesulfonic acid (MOPS) Buffer (Teknova) to water to a final 1× concentration, 1.32 mM K2HPO4, and 0.4% (vol/vol) glycerol and then filter-sterilizing. Unless otherwise noted, all media were supplemented with freshly prepared 20 µM FeSO4. OD600 analyses were performed on Mettler-Toledo UV5Bio UV/Visible spectrophotometer (Columbus, Ohio, USA). For antimicrobial studies, uropathogenic E. coli strain CFT073 (ATCC: BAA-2503) was provided by Kevin Schwartz from the lab of Rodney Welch. All manipulation of UPEC was conducted in a certified biosafety level 2 (BSL-2) laboratory while using BSL-2-associated safety procedures. Antimicrobial data were collected on a Biotek Epoch 2 microplate reader or a Biotek Synergy Neo 2 microplate reader. For metabolic stability studies, losartan potassium (PHR1602), used as an internal standard, was bought from Millipore Sigma (Burlington, MA). Methanol (A456-4) and acetonitrile (A955-4) were purchased from Fisher Chemical (Pittsburgh, PA). Water (9831-03) was purchased from JT Baker (Philipsburg, NJ). Dimethyl sulfoxide (DMSO)(154938-500mL) was purchased from Sigma Aldrich (St. Louis, MO). Mouse plasma (WT) was purchased from Innovative Research (Novi, MI). Mouse liver microsomes (M1000) were purchased from XenoTech LLC (Kansas City, KS).
All antimicrobial susceptibility assays were conducted as previously described using an aseptic technique with some modification ([7]). Briefly, 3–5 isolated colonies of CFT073 on LB agar or pooled urine agar were inoculated into 3 mL of liquid MOPS-glycerol medium or pooled urine, respectively, and grown overnight with shaking at 37°C. Saturated cultures were diluted 1:50 in fresh medium and grown to an OD600 of 0.4. These exponential phase cultures were then diluted 1:1,000 into fresh medium to yield the experimental inoculum, which was mixed 1:1 with medium containing 1 or N5-Pan analog at twice the desired final concentration in 96-well plates. The final concentration of bacteria in each well was approximately 10^5 CFU/mL in a final volume of 200 µL. The concentration ranges of compounds evaluated in MOPS-glycerol were: 1 (0–312.5 μM), 2 (0–100 μM), 3 (0–500 μM), 4–5 (0–2,000 μM), 6–7 (0–100 μM), and 8–12 (0-2,000 μM). Analogs 1, 6, and 7 were evaluated over a range of 0–4,000 μM in four batches of pooled human urine. The OD600 was monitored for 24 h (MOPS-glycerol) or 16 h (pooled urine) at 37°C with periodic shaking. […]

Setting [1] is: Escherichia coli, UPEC CFT073, all urine batches A-D, read-out: MIC across four batches of pooled urine.
The mark [2] stands for this setting: Escherichia coli, UPEC CFT073, urine batch A, read-out: MIC in pooled human urine, urine batch A.
The mark [3] stands for this setting: Escherichia coli, UPEC CFT073, urine batch B, read-out: MIC in pooled human urine, urine batch B.
Setting [4] is: Escherichia coli, UPEC CFT073, urine batch C, read-out: MIC in pooled human urine, urine batch C.
Where [5] appears, read: Escherichia coli, UPEC CFT073, urine batch D, read-out: MIC in pooled human urine, urine batch D.
[6] abbreviates: UPEC CFT073, urine batch A, read-out: MIC in pooled human urine, urine batch A.
[7] abbreviates: UPEC CFT073, urine batch B, read-out: MIC in pooled human urine, urine batch B.

Where two headings read alike, the source gives them in different places.

Broadly, the MIC is the smallest concentration in the dilution series that meets the test's criterion for growth inhibition. Consider `CCCCCNC(=O)CNC(=O)[C@H](O)C(C)(C)CO` [compound 6, N5-α-pantothenamide], for which the MIC is 250 to 1000 µM under setting [1]; 1000 µM under setting [2]; 250 µM under setting [3]; 500 µM under setting [4]; 500 µM under setting [5]; 1000 µM under setting [6]. Further, under setting [7], the minimum inhibitory concentration (MIC) stood at 250 µM. Also, the “fold higher MIC in urine than in MOPS-glycerol” value (urine MICs vs MIC in MOPS-glycerol) is reported as over 40 fold.
Turning to `CCCCCNC(=O)CCNC(=O)[C@H](O)C(C)(C)CO` [compound 1, N-pentylpantothenamide, reference compound], the MIC was 250 to 1000 µM under setting [1]; 1000 µM under setting [2]; 250 µM under setting [3]; 1000 µM under setting [4]; 1000 µM under setting [5]; 1000 µM under setting [6]. Also, under setting [7], the MIC was found to be 250 µM.
